Experimental data reported in patent US7741275B2, “Agents and use thereof” (Lipopeptide AB, priority 2004, dated 2010).

Legend:
[1] = system: HaCaT and HEKn cells; type: cell-based
Method: (§1) 25,000 cells/well were plated in 6-well plate culture dishes. […], cells were treated with 0, 0.23, 0.46, 0.69, 0.9, 1.15, 2.3, 4.6 and 11.5 μM LL-37. Each treatment was performed in triplicate. The peptide was diluted in medium (DMEM 5% FCS to HaCaT cells and Epilife basal Medium supplemented with 0.1% FCS to HEKn cells). The cells were treated during a total time of 24 h. After LL-37 stimulation, the topoisomerase I inhibitor camptothecin (CAM) (Sigma Chemical Co., St. Luis, Mo.) in dimethylsulfoxide was added to the cells to a final 6 μM concentration. Cells were further incubated for 24 h before analysis.
Two apoptotic parameters, the loss of the membrane integrity and DNA decrease were evaluated by flow cytometry.
Evaluation of Membrane integrity: After stimulation with LL-37, and treatment with CAM, cells were harvested by trypsinization. The cells were then washed in cold Dulbecco's phosphate-buffered saline (PBS) and counted with a haemocytometer (Hausser Scientific, Horsham, Pa.). Cell density was adjusted to 1×10^6 cells/ml in PBS. Apoptosis was detected by staining with propidium iodide and YO-PRO-1 dye (Molecular Probes, Eugene, Oreg.). Stained cells were analyzed on a FACScan (Beckton-Dickinson, San Jose, Calif.). Cells were gated for analysis on the basis of the forward (FSC) and side light scatter characteristics (SSC). Analysis of cells expressing YO-PRO and propidium iodide (PI) was done using Cell Quest software (Becton Dickinson), which provided percentages of YO-PRO and PI-positive cells. Cells that stained green with YO-PRO were considered apoptotic. Cells that stained also red, with propidium iodide, were necrotic. Live, viable cells take up little or no dye.
Analysis of DNA content by flow cytometry. The PI/RNase staining buffer (BectonDickinson) was used for this analysis. Trypsinized cells were fixed in cold 70% (v/v) ethanol, and stored until its use at 4° C. The DNA content was measured through incorporation of propidium iodide into DNA. Fluorometric analysis was performed using a FACScan flow cytometer (Becton and Dickinson, Mountain View, Calif., USA). FSC (forward light scatter) and SSC (side light scatter) of particles were simultaneously measured to determine the size and the granularity of cells. The red fluorescence of PI stained nuclei was detected in the FL-4 window (600 nm band pass filter and 35 nm bandwidth). The intensity of fluorescence was proportional to the cellular DNA content. Each histogram was divided into two parts: (1) the M1 area representing asynchronous, non-apoptotic, live cells (cells in G1,S and G2 phases with DNA content equal to 2n to 4N); and (2) the M2 area representing apoptotic cells with a smaller quantity of DNA in comparison to living cells.

[2] = system: Caspase-3; experiment: Caspase-3 activity assay; type: cell-based, human
Method: as §1
Caspase-3 enzymatic activity was estimated using the fluorometric substrate VDVAD-AMC (100 μM) and DEVD-AMC (50 μM) as previously described.

[3] = system: IAP-2 mRNA; experiment: IAP-2 expression by RT-PCR; type: cell-based, human
Method: HEKn cells were treated with 2 μM LL-37 and harvested at different time points after stimulation. RNA from these cells was reverse transcribed and the expression of IAP-2 was determined by real-time PCR. The transcription level of IAP-2 for each time point is shown normalized against 18S RNA and relative to the untreated cells (control set as 1 for each time point).
HEKn cells were treated with or without the specific COX-2 inhibitor SC-791 (25 nM) and further incubated for 6 hours with or without LL-37 (2 μM).
(§2) Total RNA was isolated from cells after different treatments according to the manufacturer's directions by using the Quiagen RNasy kit (Operon Biotechnologies, Cologne, Germany). Reverse transcription was performed with a first-strand synthesis kit (Amershan Biosciences)

[4] = system: ERK1/2; experiment: Assay of phosphorylated ERK1/2 in LL-37 treated HaCaT cells; type: cell-based, human; details: LL-37 10 μg/ml, Western blot
Method: HaCaT cells were seeded at 10% confluence and kept in DMEM with 0.2% FCS for 36 hours. For the next 48 hours, cells were cultured in DMEM with 1% or 5% FCS respectively, and in presence or absence of LL-37 at 10 μg/ml, with daily changes of medium. EGF at 10 ng/ml served as positive control. The expression of phosphorylated ERK 1/2 was evaluated by Western blot analysis with a mouse monoclonal antibody (Cell Signaling Technology, Beverly Mass.).

[5] = system: HaCaT cells; experiment: LL-37 peptide treatment of epithelial cells, [3H]-Thymidine incorporation; type: cell-based, human; details: 5% fetal calf serum, LL-37 10 μg/ml, vs non treated control
Method: A spontaneously immortalised human keratinocyte cell line (HaCaT)^19 was cultured in DMEM (Dulbecco's modified Eagle's medium, Gibco BRL, Life Technologies, Scotland) supplemented with 10% FCS (fetal calf serum, Hy-Clone, Boule Nordic AB Huddinge, Sweden) and antibiotics (PEST=penicillin 50 U/l and streptomycin […], Gibco BRL). Cells were harvested at 70% confluence and seeded in 96-well plates, 2000 cells in 100 μl medium (DMEM+10% FCS and PEST). After 12 hours, medium was changed to serum free medium (DMEM+PEST) and cells were synchronized in G0/G1 by serum starvation for 72 hours and then treated with 100 μl of medium (DMEM+5% FCS+PEST) containing synthetic biologically active LL-37 peptide at 10 μg per ml. Cells treated with only DMEM+5% FCS and PEST served as control. The experiments were performed in quadruplicates. Cell proliferation was evaluated by [^3H]-Thymidine incorporation. Cells were treated with 1 μCi/well of [^3H]-Thymidine (20.00 Ci/mmol, Perkin Elmer Life Sciences Inc. Boston, Mass.) during 12 hours and harvested (Harvester 96, Tomtec, Orage, Conn.) onto a glass fiber filter (Wallac Oy Turku, Finland). The incorporation of [^3H]-Thymidine was determined using a liquid scintillation counter (Microbeta Pluss, Wallac Sveriges AB). The experiment was repeated twice in 6 replicates.

[6] = Antibacterial assay of synthetic LL-37; details: synthetic LL-37 peptide
Text: LL-37 peptide was synthesised and purified by HPLC to a purity of 98% (PolyPeptide Laboratories A/S, Hillerød, Denmark). Biological activity of the peptide was confirmed in an antibacterial assay^18.

[7] = system: COX-2 mRNA; experiment: COX-2 expression by RT-PCR; type: cell-based, human; details: HEKn cells, 2.3 μM LL-37
Method: HEKn cells were treated with 2 μM LL-37 and harvested at 6, 12 and 24 hours after stimulation. Untreated cells were used as a control in each time point (light grey columns). RNA from these cells was reverse transcribed and the relative expression of COX-2 with respect to the control was determined by qPCR as above.
as §2

[8] = system: hCAP18 transcription; experiment: Initial studies on small-molecule control of hCAP18 transcription; type: cell-based, human
Text: Since thus small molecules can control the expression of hCAP18, it is meaningful to systematically screen for inhibitory compounds. Initial studies have shown that estrogen and some of its metabolites have no effect. […] Based on these findings, antagonists to vitamin D, such as ZK159222 (Schering A G), and TEI-9647 (Tejin Institute for Medical Research, Tokyo), and antagonists to vitamin A such as AGN193109 (Allergen Pharmaceuticals), are potential agents for use in the methods of the invention.

[9] = system: HaCaT cells; experiment: Pertussis toxin assay (LL-37 induced proliferation); type: cell-based, human; details: pretreatment with pertussis toxin 20 ng/ml 24 h before LL-37 (5 or 10 μg/ml); not shown
Method: To assess the involvement of FPRL1 in mediating the stimulation of epithelial cell proliferation induced by hCAP18/LL-37, HaCaT cells were treated with the G-protein-coupled receptor inhibitor pertussis toxin. Cells were preincubated with pertussis toxin (Sigma-Aldrich, Switzerland) 24 h before the LL-37 treatment in a final toxin concentration of 20 ng/ml. Medium was changed 48 hours after cell seeding and the HaCaT cells were treated with 100 μl of medium (DMEM+5% FCS and PEST) containing synthetic biologically active LL-37 peptide at 5 or 10 μg per ml respectively. Cells treated with only DMEM+5% FCS and PEST served as control.

[10] = system: hCAP18 transcription; details: via vitamin D receptor binding to response element in hCAP18 promoter; cited from earlier work

CC[C@@]1(O)C(=O)OCc2c1cc1n(c2=O)Cc2cc3ccccc3nc2-1 [CAM, camptothecin]
induction of apoptosis (membrane integrity, DNA profile) ([1]; 6 μM CAM, 24 hours, HaCaT and keratinocytes): morphological changes characteristic of apoptosis | time of peak caspase activity ([2]; keratinocytes, CAM treatment): 24 h | caspase activity ([2]; keratinocytes, within the first 12 hours of CAM treatment): significantly increased

NS(=O)(=O)c1ccc(-c2c(-c3ccccc3)noc2C(F)F)cc1 [SC-791]
LL-37 induced increase of IAP-2 mRNA after COX-2 inhibition ([3]; HEKn cells pretreated 12 h with 25 nM SC-791, then 2 μM LL-37): did not increase the IAP-2 mRNA levels

LL-37: synthetic, biologically active C-terminal 37 amino acid peptide of human cathelicidin hCAP18
activation of ERK1/2 [4]: no significant activation | amount of apoptotic cells ([1]; 24 h with LL-37 alone or simultaneously with LL-37 and CAM, data not shown): not change in the amount of apoptotic cells | inhibition of CAM induced apoptosis ([1]; LL-37 0.23 μM up to 2,3 μM for 24 hours before CAM 6 μM 24 h, HEKn and HaCaT cells): inhibited both DNA fragmentation and loss of membrane permeability | cell death ([1]; LL-37 4.6 μM and 11.5 μM, 24 hours before CAM, non-apoptotic mechanisms): caused cell death | cytotoxicity (increased fraction of necrotic but not apoptotic cells) ([1]; LL-37 4.6 and 11.5 μM, alone or simultaneous with CAM): cytotoxic | cell proliferation ([3H]-Thymidine incorporation) [5]: significant increase in cell proliferation | IAP-2 mRNA ([3]; HEKn cells, 2.3 μM LL-37, from 6 hours to 12 hours after stimulation): increased IAP-2 mRNA | c-IAP-2 levels ([3]; HEKn cells, LL-37 below 2.3 μM, data not shown): did not affect the c-IAP-2 levels | biological activity in antibacterial assay [6]: confirmed | effect on camptothecin-induced caspase activation ([2]; pre-treatment with 2.3 μM LL-37): decreased camptothencin-induced caspase activation | COX-2 mRNA levels [7]: time-dependent increase in mRNA levels | time of highest COX-2 mRNA levels [7]: 12 h

Vitamin A
hCAP18 transcription ([8]; breast cancer cell line ZR-75-1): stimulates transcription | hCAP18 transcription ([8]; skin keratinocytes): inhibits the transcription

estrogen
effect on hCAP18 expression ([8]; initial studies, cells not given): no effect

pertussis toxin
suppression of proliferation of HaCaT cells [9]: approximately 50%

vitamin D
induction of hCAP18 transcription [10]: strongest inducer of hCAP18 transcription
